Where two headings read alike, the source gives them in different places.
System: HCV replicon
Test: HCV replicon system in Huh7 cells (Q-RT-PCR of replicon RNA)
Conditions: Hepatitis C virus, Huh-7, 96 h
[1] = read-out: average EC90 value, corrected for cellular toxicity (ΔΔCt vs rDNA/rRNA)

Description: Antiviral testing of candidate compounds for Flaviviridae: The HCV replicon system in Huh7 cells.
Add the test compound immediate after seeding the cells and incubate for a period of 3 to 7 days at 37° C. in an incubator. Media is then removed, and the cells are prepared for total nucleic acid extraction (including replicon RNA and host RNA). Replicon RNA can then be amplified in a Q-RT-PCR protocol, and quantified accordingly. […] In such experiments, one way to express the antiviral effectiveness of a compound is to subtract the threshold RT-PCR cycle of the test compound with the average threshold RT-PCR cycle of the negative control. This value is called DeltaCt (ΔCt or DCt). […] As a positive control, recombinant interferon alfa-2a (Roferon-A, Hoffmann-Roche, New Jersey, USA) is taken alongside as positive control.
In a typical setting, a compound might reduce both the host RNA polymerase activity and the replicon-encoded polymerase activity. Therefore, quantification of rRNA (or any other host RNA polymerase I product) or beta-actin mRNA (or any other host RNA polymerase II) and comparison with RNA levels of the no-drug control is a relative measurement of the effect of the test compound on host RNA polymerases.
With the availability of both the HCV ΔCt data and the rRNA ΔCt, a specificity parameter can be introduced. This parameter is obtained by subtracting both ΔCt values from each other.
In another typical setting, a compound might reduce the host RNA polymerase activity, but not the host DNA polymerase activity. Therefore, quantification of rDNA or beta-actin DNA (or any other host DNA fragment) and comparison with DNA levels of the no-drug control is a relative measurement of the inhibitory effect of the test compound on cellular DNA polymerases
With the availability of both the HCV ΔCt data and the rDNA ΔCt, a specificity parameter can be introduced. This parameter is obtained by subtracting both ΔCt values from each other. […] However, compounds with a ΔΔCt value of less than 2, but with limited molecular cytotoxicty (rDNA ΔCT between 0 and 2) may be desired. […]

**Q.** For `Nc1ccn([C@@H]2O[C@H](CO)[C@@H](O)[C@H]2F)c(=O)n1` [2′-Deoxy-2′F-Cytidine, 2′-deoxy-2′-fluorocytidine], which EC90 (read-out: EC90 (1-log reduction of replicon HCV RNA, 3.3 Ct) (converted)) is on record?
**A.** ~5 µM

**Q.** What about the EC90 [1] of the same compound?
**A.** ~10 µM

**Q.** Which EC90 [1] does the source give for `Nc1ccn([C@@H]2O[C@H](CO)[C@@H](O)C2(F)F)c(=O)n1` [Gemcitabine, β-D-2′,2′-difuoro-2′ deoxycytidine, reference compound] here?
**A.** ~0.3 µM
